Here are results for one compound from PMC12544700, “Identification of a Small Secretoneurin Derivative That Inhibits CaMKIIδ Activity” (Journal of Cellular and Molecular Medicine, 2025).

Peptide text beside a SMILES is read from it. * marks the point of attachment. Biotin = O=C1N[C@H]2[C@H](CS[C@H]2CCCCC(=O)*)N1; Ahx = NCCCCCC(=O)O

The target of one assay is T1, human His‐CaMKIIδ‐T287D (Homo sapiens, UniProt Q13557, T287D).
T1 construct: Recombinant human His‐CaMKIIδ‐T287D and rat His‐CaMKIIδ‐T287D full‐length proteins; His; purchased Genscript Corp (custom made)
T1 sequence (Q13557 whole entry T287D): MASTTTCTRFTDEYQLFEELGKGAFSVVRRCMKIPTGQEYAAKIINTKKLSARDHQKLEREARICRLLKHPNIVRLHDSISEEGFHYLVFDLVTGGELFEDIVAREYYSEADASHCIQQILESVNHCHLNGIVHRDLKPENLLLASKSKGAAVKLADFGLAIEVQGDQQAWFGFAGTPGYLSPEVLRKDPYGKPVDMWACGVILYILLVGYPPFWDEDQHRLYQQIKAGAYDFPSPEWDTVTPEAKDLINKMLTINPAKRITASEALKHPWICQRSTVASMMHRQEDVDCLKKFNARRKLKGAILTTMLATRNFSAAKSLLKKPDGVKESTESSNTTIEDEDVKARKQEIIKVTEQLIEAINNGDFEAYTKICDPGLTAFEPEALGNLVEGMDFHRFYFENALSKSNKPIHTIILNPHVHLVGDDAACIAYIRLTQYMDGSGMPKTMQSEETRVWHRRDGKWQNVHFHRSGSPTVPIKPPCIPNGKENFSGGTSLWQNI
Briefly: ELISA-based binding to human His‐CaMKIIδ‐T287D. Particulars: biotin‐ahx‐SN‐db‐short; values relative to biotin‐ahx‐Scram; Figure S2B, n = 6. How it is done: A 96‐well microplate was coated with 1 μg/well of rat or human recombinant His‐CaMKIIδ‐T287D or CaMKIIδ fragments (custom made by Genscript) in 1× PBS overnight at 4°C with gentle tilting. Wells were washed with 1× PBS‐t (0.1% Tween‐20) and blocked with 0.5% gelatin (G‐1890 Gelatin type A, Sigma Merck, Darmstadt, Germany) or BSA (805095 30% BSA (Rinderalbumin 30%), Norsk Labex, Høvik, Norway) for 1 h at room temperature (RT), then incubated with 5 μL of biotinylated peptide (1 mM) for 2 h at 37°C with gentle tilting. The wells were then washed five times with 1× PBS‐t. To detect binding, the wells were incubated with a monoclonal anti‐biotin‐HRP conjugated antibody (1:5000 dilution, A‐0185, Sigma) for 30 min at RT. The washing steps were repeated, and the plate was incubated with the Ultra TMB solution (1‐step Ultra TMB‐ELISA Substrate Solution 34028, Thermo Fischer Scientific, Waltham, MA, USA) for 30 min at RT with gentle tilting. The reaction was stopped by adding 2 N HCl (100 μL), and the signal was measured at 450 nm by a plate reader (Hidex Sense Microplate Reader, Åbo, Finland). For the competition assay, 20 μL (1 mM) of T‐site binding peptides AKAP18δ‐N1, CN21 or CN27 (without any biotin tags) were incubated in the same well with 5 μL (1 mM) of SN biotinylated peptides. […]

Assay [1] deals with T2, Recombinant rat CaMKIIδ‐T287D (Rattus norvegicus, UniProt P15791, T287D).
T2 construct: Recombinant human His‐CaMKIIδ‐T287D and rat His‐CaMKIIδ‐T287D full‐length proteins; His; purchased Genscript Corp (custom made)
Briefly: ELISA-based competition assay with T‐site binding peptides. Particulars: 5 μL 1 mM biotin‐SN‐db‐short with 20 μL 1 mM untagged competitor; Figure 2C, n = 4–12. How it is done:
The wells were then washed five times with 1× PBS‐t. […] For the competition assay, 20 μL (1 mM) of T‐site binding peptides AKAP18δ‐N1, CN21 or CN27 (without any biotin tags) were incubated in the same well with 5 μL (1 mM) of SN biotinylated peptides.

The subject of a further assay is adult rat cardiomyocytes. Put plainly: Ca2+ imaging (sparks, waves, transients) with ISO stimulation. It counts as cell-based. Conditions: ISO 100 nM. How it is done:
Male Wistar rats (Janvier, France) weighing ~300 g were sedated in an anaesthesia chamber by inhalation of 5% isoflurane and 95% O2. The heart was excised under deep surgical anaesthesia, cannulated, and then retrogradely perfused through the aorta on a modified Langendorff setup with cell isolation solution containing (in mM, pH adjusted to 7.4, 37°C): NaCl 130, Hepes 25, D‐glucose 22, KCl 5.4, MgCl2 0.5, NaH2PO4 0.4, and a flow rate of 4 mL/min. After the heart was cleaned of blood, collagenase type II (2 mg/mL, Worthington Biochemical Corp, Lakewood, NJ, USA) was added to the perfusate, and the hearts digested for ~10 min. Following digestion, hearts were cut down, and the left ventricle dissected into pieces, which were transferred into 10 mL cell isolation solution with 250 μL BSA (40 mg/mL) and ~0.2 mg Deoxyribonuclease I (Worthington Biochemical Corporation, Lakewood, NJ, USA). After light agitation (~2 min), the supernatant was filtered (200 μm nylon mesh), and isolated cardiomyocytes were allowed to sediment by gravity. The cardiomyocytes were then washed in isolation buffer containing 1 mg/mL BSA, with a stepwise increase in Ca^2+ concentration up to 0.2 mM. Animal experiments were approved by the Norwegian Research Authority (FOTS ID: 30114). Adult rat cardiomyocytes were treated with 10 μM of SN, SN‐db‐short or scram in 0.2 mM Ca^2+ cell isolation solution for 1 h. These loading concentrations are higher than those used in our previous studies of SN, where we had sought to examine endogenous, circulating levels, rather than potentially therapeutic levels applied exogenously. […] Ca^2+ transients were recorded in linescan mode using a Zeiss LSM 7 Live confocal microscope (Jena, Germany), at a frame rate of 1.5 ms and a pixel size of 0.16 μm. These recordings were normalised to resting fluorescence values to create F/F0 images and assess Ca^2+ transient amplitude. The rate of Ca^2+ transient decline was assessed by measurements of the decay time constant (Tau). Spontaneous sparks and waves were measured during a 9 s pause in the electrical excitation. […]

Turning to `CC(C)C[C@H](NC(=O)[C@H](CCC(=O)O)NC(=O)[C@H](CCC(N)=O)NC(=O)[C@H](Cc1ccccc1)NC(=O)[C@H](Cc1ccccc1)NC(=O)[C@H](CO)NC(=O)[C@H](CCC(=O)O)NC(=O)[C@H](Cc1ccccc1)NC(=O)[C@@H](NC(=O)[C@H](C)NC(=O)[C@H](CC(C)C)NC(=O)[C@H](CO)NC(=O)[C@H](CCC(N)=O)NC(=O)[C@@H]1CCCN1C(=O)[C@@H](NC(=O)[C@H](Cc1ccc(O)cc1)NC(=O)[C@H](CCC(N)=O)NC(=O)[C@H](CCC(=O)O)NC(=O)CCCCCNC(=O)CCCC[C@@H]1SC[C@@H]2NC(=O)N[C@@H]21)[C@@H](C)O)[C@@H](C)O)C(=O)NCC(=O)N[C@@H](CCCCN)C(=O)O` [SN‐db‐short] ({Biotin-Ahx}-EQYTPQSLATFESFFQELGK-OH; N-terminus and C-terminus assumed), the “Binding to recombinant human CaMKIIδ‐T287D (ELISA)” value on human His‐CaMKIIδ‐T287D is listed as “increased binding”. Besides, the “SN‐db‐short binding to CaMKIIδ‐T287D in presence of competitor peptides AKAP18δ‐N1, CN21, CN27” value in assay [1] is “only marginally outcompeted”. The “ISO-induced increase of Ca2+ transient amplitude and acceleration of Ca2+ transient decay” value in the assay with adult rat cardiomyocytes (10 μM peptide 1 h, field stimulation 1 Hz, Figure 5B–D, n = 22–73, 3–6 rats) is on record as “significantly attenuated”. Also, the “Ca2+ spark incidence under ISO” value in the assay on adult rat cardiomyocytes (10 μM peptide 1 h pre-treatment, 9 s pause after 1 Hz pacing, Figure 4D, n = 35–85 cells from 3 to 6 rats) is “strong reduction”. Also, the “Ca2+ wave incidence under ISO” value with adult rat cardiomyocytes (10 μM peptide 1 h pre-treatment, 9 s pause after 1 Hz pacing, Figure 4E, n = 35–66 cells from 3 to 5 rats) is listed as “strong reduction”.
